According to patent US4118561A, “7-(Substituted)-7H-pyrrolo[3,2-f]quinazoline-1,3-diamines” (priority 1977, dated 1978):
In brackets after ≈: the same amount, converted by molar mass. Read-outs that look alike come from different tables or passages of the source.

Assays:
E. coli 9637 = test: In vitro antibacterial activity (MIC), E. coli 9637; settings: Escherichia coli, 9637, 18 h
S. paratyphi 11737 = test: In vitro antibacterial activity (MIC), S. paratyphi 11737; format: cell-based; settings: Salmonella enterica, 18 h
Proteus mirabilis 190 = test: In vivo antibacterial synergism (mouse), Proteus mirabilis 190; design: species or system Proteus mirabilis (infected mice, CD-1); settings: mice, p.o.; for ED50: Proteus mirabilis, 190, po, 336 h; for PD50 SM/Cpd. (compound part): 0 hours, 20160 min
Method: (§1) The test agents are weighed, suspended in 0.5% aqueous carboxymethyl cellulose, homogenized (glass tissue grinder) and diluted according to the design of the experiment. Mice (male, 18±1 g., CD-1 strain) are pre-weighed, pooled, infected at random intraperitoneally with a 0.5 ml. standardized suspension (LD95 ±5%) of the bacterial organism in 5% gastric mucin and treated at random with single doses of the test agents either at the time of infection or six hours after infecting. The treated groups consist of ten mice per dosage level. Deaths are recorded daily for 14 days and the PD50 (mice are treated at time of infection) and CD50 (mice are treated six hours after infecting) values are calculated by the method of Reed and Muench [Amer. J. Hyg., 27, 493 (1938)].

bacterial infections = test: Synergism with sulfamethoxazole against bacterial infections in mice, oral; format: in vivo
Method: The invention also provides compounds which will potentiate the antibacterial effects of sulfa drugs.
as §1

N. catarrhalis 8193 = test: In vitro antibacterial activity (MIC), N. catarrhalis 8193; settings: 18 h
[1] = Antimalarial blood schizonticidal test in mice; format: in vivo, Plasmodium berghei (infected ICR/HA Swiss mice); design: ΔMST (increase in mean survival time): unit: days; settings: mouse, in vivo, sc, single dose, read-out: Highest Non-Lethal Dose
Summary of the method: (§2)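 Single s.c. doses (peanut oil vehicle, graded levels) given 72 h after i.p. inoculation of young Swiss mice with P. berghei KBG 173 blood (4 × 10^7 parasitized cells). Activity judged by cures (alive at 60 days) or significant mean survival gain over untreated controls, without drug-related deaths.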

[2] = system: Plasmodium berghei KBG 173; test: Antimalarial blood schizonticidal test in mice; format: in vivo, Plasmodium berghei (infected ICR/HA Swiss mice); design: ΔMST (increase in mean survival time): unit: days; settings: s.c.; for ED100 / minimal effective dose: Plasmodium berghei, sc, single dose; for ED100: read-out: Lowest Dose Curing All Mice; for minimal effective dose: read-out: Min. Curing Dose; for Cure/Treat at Min. Curing Dose: at the Min. Curing Dose
Summary of the method: as §2

S. aureus Smith = test: In vitro antibacterial activity (MIC), S. aureus Smith; settings: Staphylococcus aureus, 18 h
K. pneumoniae 10031 = test: In vitro antibacterial activity (MIC), K. pneumoniae 10031; settings: Klebsiella pneumoniae, 10031, 18 h
S. aureus 53-180 = test: In vitro antibacterial activity (MIC), S. aureus 53-180; settings: Staphylococcus aureus, 53180, 18 h
P. vulgaris 6896 = test: In vitro antibacterial activity (MIC), P. vulgaris 6896; settings: Proteus vulgaris, 6896, 18 h
[3] = system: lymphocytic leukemia P-388; test: Activity in mice against lymphocytic leukemia P-388; format: in vivo; settings: Mus musculus, P388, ip, read-out: T/C; for response vs control in vivo at 10 mg/kg: mice, I.P.
Proteus vulgaris 347 = test: In vivo antibacterial synergism (mouse), Proteus vulgaris 347; design: species or system Proteus vulgaris (infected mice, CD-1); settings: Proteus vulgaris, 347, po, 336 h, mice, p.o.
Method: as §1

Proteus mirabilis 3 = test: In vivo antibacterial synergism (mouse), Proteus mirabilis 3; design: species or system Proteus mirabilis (infected mice, CD-1); settings: Proteus mirabilis, 3, po, 336 h; mice, p.o., treated 0 hours after infecting; read-out: PD50 (agent alone)
Method: as §1

Escherichia coli W-102 = test: In vivo antibacterial synergism (mouse), Escherichia coli W-102; design: species or system Escherichia coli (infected mice, CD-1); settings: Escherichia coli, W102, po, 336 h; mice, p.o., treated 0 hours after infecting; read-out: PD50 (agent alone)
Method: as §1

[4] = treated 0 hours after infecting, read-out: PD50 (agent alone)
[5] = infected mice, highest dose with no deaths for any reason
[6] = 336 h, alive on day 14 considered cured, no 60-day data
[7] = treated 6 hours after infecting, read-out: CD50 (agent alone)

Structure (SMILES): Nc1nc(N)c2c(ccc3c2ccn3Cc2ccc(F)cc2)n1 [Example 5, 7-[(4-fluorophenyl)methyl]-7H-pyrrolo[3,2-f]-quinazoline-1,3-diamine]
- MIC (E. coli 9637): 0.122 µg/mL (≈ 0.397 µM)
- MIC (S. paratyphi 11737): 0.488 µg/mL (≈ 1.59 µM)
- ED50 (Proteus mirabilis 190; [4]): 9.8 mg/kg
- PD50 SM/Cpd. (compound part) (Proteus mirabilis 190; with SM 1.56 mg. per kg.): 1.56 mg. per kg.
- synergistic effect with sulfamethoxazole (bacterial infections): synergistic effect
- MIC (N. catarrhalis 8193): 0.0038 µg/mL (≈ 0.0124 µM)
- MTD [1, 5]: 80 mg/kg
- ED100 ([2]; 1440 h, 60-day survivors): 20 mg/kg
- minimal effective dose ([2]; 1440 h, 60-day survivors): 5 mg/kg
- Cure/Treat at Min. Curing Dose ([2]; 60-day survivors): 2/5
- ΔMST (increase in mean survival time) ([2]; dose 2.5 mg. per kg.): 7.1
- MIC (S. aureus Smith): 0.244 µg/mL (≈ 0.794 µM)
- MIC (K. pneumoniae 10031): 0.031 µg/mL (≈ 0.101 µM)
- MIC (S. aureus 53-180): 0.122 µg/mL (≈ 0.397 µM)
- MIC (P. vulgaris 6896): 0.488 µg/mL (≈ 1.59 µM)

Structure (SMILES): Nc1nc(N)c2c(ccc3c2ccn3Cc2ccsc2)n1 [Example 41]
- MIC (E. coli 9637): 0.244 µg/mL (≈ 0.826 µM)
- MIC (S. paratyphi 11737): 0.976 µg/mL (≈ 3.3 µM)
- MIC (N. catarrhalis 8193): 0.0152 µg/mL (≈ 0.0515 µM)
- MTD ([1]; alive on day 14 considered cured, no 60-day data): 320 mg/kg
- ED100 [2, 6]: 160 mg/kg
- minimal effective dose [2, 6]: 20 mg/kg
- Cure/Treat at Min. Curing Dose ([2]; alive on day 14 considered cured): 3/5
- MIC (S. aureus Smith): 0.976 µg/mL (≈ 3.3 µM)
- MIC (K. pneumoniae 10031): 0.061 µg/mL (≈ 0.207 µM)
- MIC (S. aureus 53-180): 0.976 µg/mL (≈ 3.3 µM)
- response vs control in vivo at 10 mg/kg [3]: 147%
- MIC (P. vulgaris 6896): 1.95 µg/mL (≈ 6.6 µM)

Structure (SMILES): Nc1nc(N)c2c(ccc3c2ccn3Cc2ccccn2)n1 [Example 43]
- MIC (E. coli 9637): 0.488 µg/mL (≈ 1.68 µM)
- MIC (S. paratyphi 11737): 0.244 µg/mL (≈ 0.84 µM)
- MIC (N. catarrhalis 8193): < 0.0009 µg/mL
- MTD [1, 5]: 80 mg/kg
- ED100 ([2]; 1440 h, 60-day survivors): 80 mg/kg
- minimal effective dose ([2]; 1440 h, 60-day survivors): 20 mg/kg
- Cure/Treat at Min. Curing Dose ([2]; 60-day survivors): 2/5
- ΔMST (increase in mean survival time) ([2]; dose 20 mg. per kg.): 11.6
- MIC (S. aureus Smith): 0.976 µg/mL (≈ 3.36 µM)
- MIC (K. pneumoniae 10031): 0.061 µg/mL (≈ 0.21 µM)
- MIC (S. aureus 53-180): 0.488 µg/mL (≈ 1.68 µM)
- response vs control in vivo at 20 mg/kg [3]: 146%
- MIC (P. vulgaris 6896): 0.244 µg/mL (≈ 0.84 µM)

Structure (SMILES): Nc1nc(N)c2c(ccc3c2ccn3Cc2ccc3ccccc3n2)n1 [Example 50]
- MIC (E. coli 9637): 7.81 µg/mL (≈ 22.9 µM)
- MIC (S. paratyphi 11737): 7.81 µg/mL (≈ 22.9 µM)
- MIC (N. catarrhalis 8193): 0.0038 µg/mL (≈ 0.0112 µM)
- MTD [1, 5]: 160 mg/kg
- ED100 ([2]; 1440 h, 60-day survivors): 5 mg/kg
- minimal effective dose ([2]; 1440 h, 60-day survivors): 1.25 mg/kg
- Cure/Treat at Min. Curing Dose ([2]; 60-day survivors): 2/5
- ΔMST (increase in mean survival time) ([2]; dose 1.25 mg. per kg.): 6.9
- MIC (S. aureus Smith): 0.976 µg/mL (≈ 2.87 µM)
- MIC (K. pneumoniae 10031): 0.122 µg/mL (≈ 0.358 µM)
- MIC (S. aureus 53-180): 0.488 µg/mL (≈ 1.43 µM)
- response vs control in vivo at 10 mg/kg [3]: 145%
- MIC (P. vulgaris 6896): 7.81 µg/mL (≈ 22.9 µM)

Structure (SMILES): Nc1cccc(Cn2ccc3c4c(N)nc(N)nc4ccc32)c1 [Example 62, 7-[(3-Aminophenyl)methyl]-7H-pyrrolo[3,2-f]quinazoline-1,3-diamine]
- MIC (E. coli 9637): 0.244 µg/mL (≈ 0.802 µM)
- MIC (S. paratyphi 11737): 0.976 µg/mL (≈ 3.21 µM)
- MIC (N. catarrhalis 8193): 0.061 µg/mL (≈ 0.2 µM)
- MTD [1, 5]: 80 mg/kg
- ED100 ([2]; 1440 h, 60-day survivors): 20 mg/kg
- minimal effective dose ([2]; 1440 h, 60-day survivors): 5 mg/kg
- Cure/Treat at Min. Curing Dose ([2]; 60-day survivors): 3/5
- ΔMST (increase in mean survival time) ([2]; dose 1.25 mg. per kg.): 7.8
- MIC (S. aureus Smith): 0.488 µg/mL (≈ 1.6 µM)
- MIC (K. pneumoniae 10031): 0.122 µg/mL (≈ 0.401 µM)
- MIC (S. aureus 53-180): 0.244 µg/mL (≈ 0.802 µM)
- response vs control in vivo at 10 mg/kg [3]: 165%
- MIC (P. vulgaris 6896): 1.95 µg/mL (≈ 6.41 µM)

Structure (SMILES): Nc1nc(N)c2c(ccc3c2ccn3-c2nccs2)n1 [Example 81, 7-(2-thiazolyl)-7H-pyrrolo[3,2-f]quinazoline-1,3-diamine]
- MIC (E. coli 9637): 0.976 µg/mL (≈ 3.46 µM)
- MIC (S. paratyphi 11737): 1.95 µg/mL (≈ 6.91 µM)
- ED50 (Proteus mirabilis 190; [4]): 22.3 mg/kg
- PD50 SM/Cpd. (compound part) (Proteus mirabilis 190; with SM 1.56 mg. per kg.): > 12.5 mg. per kg.
- PD50 SM/Cpd. (compound part) (Proteus mirabilis 190; with SM 3.11 mg. per kg.): 6.25 mg. per kg.
- synergistic effect with sulfamethoxazole (bacterial infections): synergistic effect
- MIC (N. catarrhalis 8193): 0.0152 µg/mL (≈ 0.0538 µM)
- minimal effective dose ([2]; 1440 h, 60-day survivors): 640 mg/kg
- Cure/Treat at Min. Curing Dose ([2]; 60-day survivors): 4/5
- ΔMST (increase in mean survival time) ([2]; dose 160 mg. per kg.): 8.3
- MIC (S. aureus Smith): 0.488 µg/mL (≈ 1.73 µM)
- MIC (K. pneumoniae 10031): 0.244 µg/mL (≈ 0.864 µM)
- MIC (S. aureus 53-180): 0.244 µg/mL (≈ 0.864 µM)
- MIC (P. vulgaris 6896): 3.9 µg/mL (≈ 13.8 µM)

Structure (SMILES): Cc1cc2c3c(N)nc(N)nc3ccc2n1Cc1ccccc1 [Example 100, 8-methyl-7-(phenylmethyl)-7H-pyrrolo[3,2-f]-quinazoline-1,3-diamine]
- MIC (E. coli 9637): 0.488 µg/mL (≈ 1.61 µM)
- MIC (S. paratyphi 11737): 3.9 µg/mL (≈ 12.9 µM)
- ED50 (Proteus mirabilis 190; [4]): 36.6 mg/kg
- PD50 SM/Cpd. (compound part) (Proteus mirabilis 190; with SM 1.56 mg. per kg.): 3.11 mg. per kg.
- synergistic effect with sulfamethoxazole (bacterial infections): synergistic effect
- MIC (N. catarrhalis 8193): 0.122 µg/mL (≈ 0.402 µM)
- MIC (S. aureus Smith): 1.95 µg/mL (≈ 6.43 µM)
- MIC (K. pneumoniae 10031): 0.244 µg/mL (≈ 0.804 µM)
- MIC (S. aureus 53-180): 0.976 µg/mL (≈ 3.22 µM)
- MIC (P. vulgaris 6896): 15.6 µg/mL (≈ 51.4 µM)

Structure (SMILES): Cc1cc(NS(=O)(=O)c2ccc(N)cc2)no1 [SM, sulfomethoxazole, reference compound]
- ED50 (Proteus vulgaris 347; [4]): 43.2 mg/kg
- ED50 (Proteus vulgaris 347; [7]): 60 mg/kg
- ED50 (Proteus mirabilis 190; [7]): 14 mg/kg
- ED50 (Proteus mirabilis 3): 9.9 mg/kg
- ED50 (Escherichia coli W-102): 95 mg/kg
